These results are taken from ChEMBL document CHEMBL1156506, “Changes to the HIV long terminal repeat and to HIV integrase differentially impact HIV integrase assembly, activity, and the binding of strand transfer inhibitors” (J Biol Chem, 2007).

Experiment [1] deals with Human immunodeficiency virus. The experiment can be described thus: Binding affinity to HIV wild type integrase using U5 GGCA LTR relative to wild type LTR. The conditions noted are these: tested as the 3H-labelled form.
The test system of experiment [2] is Human immunodeficiency virus. The experiment can be described thus: Inhibition of HIV wild type integrase assessed as specific strand transfer activity using U5 GddA LTR by scintillation proximity assay relative to wild type LTR. The arrangement: scale not given: the % may be the effect or the level left. The conditions noted are these: tested as the 3H-labelled form. (In a scintillation proximity assay essentially only radioactivity close to the scintillant gives light.)

The structures appear in SMILES notation. Where only a bound is given, the exact number is not on record here.

For `Cn1c(N2CCCCS2(=O)=O)nc(C(=O)NCc2ccc(F)cc2)c(O)c1=O` [BMS-707035], the Activity in experiment [1] was under 25%; in experiment [2], 3%.
